# Measured values as given in US11535597B2, “Photoreactive ligands and uses thereof” (The Scripps Research Institute, priority 2017, dated 2022).
# Tested on: proteins in HEK293T cells
# Assay: MS-based mapping of FFF probe-modified peptides (isoTOP, sites of labeling)
# Type: binding, human
# Procedure: Preparation and analysis was adapted from methods previously reported. In brief, for global mapping of fragment probe-modified peptides, separate 10 cm dishes of cells were treated with probes (200-250 μM) in 3.0 mL of DMEM (serum-free) and (if applicable) competitor ligands, proteomes harvested and subjected to click chemistry conditions with either light or heavy isotopically labeled biotin-TEV-azide (10 μL of 5 mM stocks in DMSO, final concentration=100 μM), TCEP, ligand and CuSO4 as detailed above. The samples were allowed to react for 1 h at which point the samples were centrifuged (16,000 g, 5 min, 4° C.). The resulting pellets were sonicated in ice-cold methanol (500 μL) and the resuspended light- and heavy-labeled samples were then combined and centrifuged (16,000 g, 5 min, 4° C.). The pellets were then solubilized in PBS containing 1.2% SDS (1 mL) with sonication and heating (5 min, 95° C.). Samples were transferred to falcon tubes containing DPBS (5 mL), to which a 100 μL of streptavidin-agarose beads slurry was added. After incubation, the beads (3 hr) were pelleted by centrifugation (1,400 g, 3 min) and were washed (2×10 mL PBS and 2×10 mL water). The beads were transferred to eppendorf tubes with 1 mL DPBS, centrifuged (1,400 g, 3 min), and resuspended in PBS containing 6 M urea. To this was added 10 mM DTT (25 μL of a 200 mM stock in water) and the beads were incubated at 65° C. for 15 mins. 20 mM iodoacetamide (25 μL of a 400 mM stock in water) was then added and allowed to react at 37° C. for 30 mins with shaking. The bead mixture was diluted with 900 μL PBS, pelleted by centrifugation (1,400 g, 3 min), and resuspended in 200 μL 2M urea (DPBS) containing trypsin and CaCl2 as described above. The beads were separated from the digest by centrifugation (1,000 g, 1 min), washed (2×1 mL PBS and 2×1 mL water) and then transferred to fresh eppendorfs with 1 mL water. The washed beads were washed once further in 150 μL TEV buffer (50 mM Tris, pH 8, 0.5 mM EDTA, 1 mM DTT) by centrifugation (1,400 g, 3 min) and the resuspended in 150 μL TEV buffer. 5 μL TEV protease (80 μM) was added and the reactions were rotated overnight at 29° C. The TEV digest was separated from the beads by centrifugation (1,400 g, 3 min) and the beads were washed once with water (100 μL). The samples were then acidified to a final concentration of 5% (v/v) formic acid and stored at −80° C. prior to analysis.
# The resulting probe-modified peptides were collected for MS analysis, which was performed as described above with differences in the salt bumps applied in the chromatographic gradients which in this case were 0%, 30%, 60%, 90% and 100% NH4OAc (500 μM). The protein identification searches of the MS data were performed with the following changes applied to identify the peptides modified with the corresponding fragment probe and the cleaved TEV tag. All amino acids were considered as possible residues for modification. To facilitate the computational searches, sets of up to 3 amino acids were searched using ProLuCID and filtered with DTASelect as described above. […] The isoTOP ratios for probe labeled peptides were quantified using the in-house software CIMAGE.
# For each protein in the site-of-labeling dataset, the UniProtKB accession number was used to map and collect relevant structures from the RCSB Protein Data Bank (PDB) fulfilling the following criteria: structures determined by X-ray crystallography, wild-type protein, Homo sapiens as the sole source organism. […] Fpocket 2.0 was used to detect potential binding pockets for the resultant structures with all parameters set at recommended default. Pockets with volume less than 500 Å^3 were removed from output prior to further analysis. Residues surrounding fpocket predicted binding pockets for each protein were collected to determine the number of residues overlapping with isoTOP peptides.
compound,measurement,setting,value
"C#CCCC1(CCC(=O)NC23CC4CC(CC(C4)C2)C3)N=N1 [probe 14, N-((3s,5s,7s)-Adamantan-1-yl)-3-(3-(but-3-yn-1-yl)-3H-diazirin-3-yl)propanamide]","Labeled Peptide of HLA-A HLAC class I histocompatibility antigen, A-2 alpha","Accession P01892, residues of probe-labeled peptide, family Uncategorized",46-59
same,Labeled Peptide of HMOX2 Heme oxygenase 2,"Accession P30519 (r933 prints P03519), residues of probe-labeled peptide, family Enzymes",69-87
same,Labeled Peptide of GHITM Growth hormone-inducible transmembrane protein,"Accession Q9H3K2, residues of probe-labeled peptide, family Uncategorized",218-240
same,Labeled Peptide of GOLPH3 Golgi phophoprotein 3,"Accession Q9H4A6, residues of probe-labeled peptide, family Adapter, Scaffolding, Modulator Proteins",75-90
same,Labeled Peptide of HAUS2 HAUS augmin-like complex subunit 2,"Accession Q9NVX0, residues of probe-labeled peptide, family Adapter, Scaffolding, Modulator Proteins",173-189
same,Labeled Peptide of FUBP1 Far upstream element-binding protein 1,"Accession Q96AE4, residues of probe-labeled peptide, family Transcription factors, Regulators",593-620
same,Labeled Peptide of HAUS1 HAUS augmin-like complex subunit 1,"Accession Q96CS2, residues of probe-labeled peptide, family Adapter, Scaffolding, Modulator Proteins",94-108
same,Labeled Peptide,"GOLPH3 Golgi phosphoprotein 3, residues of probe-modified peptide",75-90
same,Labeled Peptide,"HLA-A HLA class I histocompatibility antigen, A-2 alpha, residues of probe-modified peptide",46-59
same,Labeled Peptide,"HMOX2 Heme oxygenase 2, residues of probe-modified peptide",69-87
same,Labeled Peptide,"LIPA Lysosomal acid lipase (P38571), residues of the probe-labeled peptide",255-270
same,Labeled Peptide,"MAN2B1 Lysosomal alpha-mannosidase (O00754), residues of the probe-labeled peptide",291-305
same,Labeled Peptide,"MCFD2 (Q8NI22), residues of the probe-labeled peptide",103-126
same,Labeled Peptide,"MSH2 (P43246), residues of the probe-labeled peptide",848-871
same,Labeled Peptide,"MT-ND2 (P03891), residues of the probe-labeled peptide",264-272
same,Labeled Peptide,"NDUFS1 (P28331), residues of the probe-labeled peptide",312-325
same,Labeled Peptide,"NUP160 (Q12769), residues of the probe-labeled peptide",638-661
same,Labeled Peptide,"NUP205 (Q92621), residues of the probe-labeled peptide",1235-1252
same,Labeled Peptide,"NUP214 (P35658), residues of the probe-labeled peptide",770-783
same,Labeled Peptide,"NUTF2 (P61970), residues of the probe-labeled peptide",91-106
same,Labeled Peptide,"NXN Nucleoredoxin (Q6DKJ4), residues of the probe-labeled peptide",384-403
same,Labeled Peptide,P07384 CAPN1 Calpain-1 catalytic subunit,175-193
same,Labeled Peptide (residues) of YWHAQ 14-3-3 protein theta,"P27348, peptide TAFDEAIAELDTLNEDSYK, PDB 5IQP",194-212
same,Labeled Peptide,P30519 HMOX2 Heme oxygenase 2,69-87
same,Labeled Peptide,P30520 ADSS Adenylosuccinate synthetase isozyme 2,431-441
same,Labeled Peptide (residues) of PPP1CC Serine/threonine-protein phosphatase PP1-gamma cat,"P36873, peptide EIFLSQPILLELEAPLK, PDB 4UT2",44-60
same,Labeled Peptide,P48729 CSNK1A1 Casein kinase I isoform alpha,84-106
same,Labeled Peptide (residues) of RAB7A Ras-related protein Rab-7a,"P51149, peptide DEFLIQASPR, PDB 1YHN",104-113
same,Labeled Peptide,P67870 CSNK2B Casein kinase II subunit beta,112-134
same,Labeled Peptide,"PCNA (P12004), residues of the probe-labeled peptide",118-138
same,Labeled Peptide,"Q8NI60 ADCK3 Chaperone activity of bc1 complex-like, mitochondr",277-295
same,Labeled Peptide,Q9H4A6 GOLPH3 Golgi phosphoprotein 3,75-90
same,Labeled Peptide (residues) of RUVBL2 RuyB-like 2,"Q9Y230, peptide ALESDMAPVLIMATNR, PDB 3UK6",315-330
same,Labeled Peptide,Q13867 BLMH Bleomycin hydrolase,111-124
same,Labeled Peptide,"protein ADCK3 (Q8NI60), residues of probe-labeled peptide",277-295
same,Labeled Peptide,"protein ADCK3 Chaperone activity of bc1 complex-like, mitochondr, residues of probe-labeled peptide",277-295
same,Labeled Peptide,"protein ADSS (P30520), residues of probe-labeled peptide",431-441
same,Labeled Peptide,"protein ADSS Adenylosuccinate synthetase isozyme 2, residues of probe-labeled peptide",431-441
same,Labeled Peptide,"protein AGK (Q53H12), residues of probe-labeled peptide",283-304
same,Labeled Peptide,"protein ALDH18A1 (P54886), residues of probe-labeled peptide",650-662
same,Labeled Peptide,"protein ASNA1 (O43681), residues of probe-labeled peptide",131-153
same,Labeled Peptide,"protein ATP2A2 (P16615), residues of probe-labeled peptide",335-352
same,Labeled Peptide,"protein ATP2B1 (P20020), residues of probe-labeled peptide",824-840
same,Labeled Peptide,"protein ATP2B4 (P23634), residues of probe-labeled peptide",812-828
same,Labeled Peptide,"protein ATP5B (P06576), residues of probe-labeled peptide",407-422
same,Labeled Peptide,"protein ATP6V1B2 (P21281), residues of probe-labeled peptide",437-457
same,Labeled Peptide,"protein BLMH (Q13867), residues of probe-labeled peptide",111-124
same,Labeled Peptide,"protein BLMH Bleomycin hydrolase, residues of probe-labeled peptide",111-124
same,Labeled Peptide,"protein CALM3 Calmodulin (P62158), residues of probe-labeled peptide",39-75
same,Labeled Peptide,"protein CALM3 Calmodulin, residues of probe-labeled peptide",39-75
same,Labeled Peptide,"protein CAPN1 (P07384), residues of probe-labeled peptide",175-193
same,Labeled Peptide,"protein CAPN1 Calpain-1 catalytic subunit, residues of probe-labeled peptide",175-193
same,Labeled Peptide,"protein CCDCC51 (Q96ER9), residues of probe-labeled peptide",86-96
same,Labeled Peptide,"protein CLPB Caseinolytic peptidase B protein homolog (Q9H078), residues of probe-labeled peptide",630-650
same,Labeled Peptide,"protein COX15 Cytochrome coxidase assembly protein COX15 homolo (Q7KZN9), residues of probe-labeled peptide",296-313
same,Labeled Peptide,"protein CSNK1A1 Casein kinase I isoform alpha (P48729), residues of probe-labeled peptide",84-106
same,Labeled Peptide,"protein CSNK1A1 Casein kinase I isoform alpha, residues of probe-labeled peptide",84-106
same,Labeled Peptide,"protein CSNK2B Casein kinase II subunit beta (P67870), residues of probe-labeled peptide",112-134
same,Labeled Peptide,"protein CSNK2B Casein kinase II subunit beta, residues of probe-labeled peptide",112-134
same,Labeled Peptide,"protein DCAF7 DDB1- and CUL4-associated factor 7 (P61962), residues of probe-labeled peptide",82-96
same,Labeled Peptide,"protein FAH Fumarylacetoacetase (P16930), residues of probe-labeled peptide",242-253
same,Labeled Peptide,"protein FAM114A2 Protein FAM114A2 (Q9NRY5), residues of probe-labeled peptide",184-196
same,Labeled Peptide,protein O94826 TOMM70A Mitochondrial import receptor subunit TOM70,475-494
same,Labeled Peptide,protein O96008 TOMM40 Mitochondrial import receptor subunit TOM40 homolog,278-293
same,Labeled Peptide,protein P05387 RPLP2 60S acidic ribosomal protein P2,50-61
same,Labeled Peptide,protein P31948 STIP1 Stress-induced-phosphoprotein 1,416-429
same,Labeled Peptide,protein P46977 STT3A Dolichyl-diphosphooligosaccharide--protein glycosy,330-340
same,Labeled Peptide,"protein PABPC1 Polyadenylate-binding protein 1, residues of the probe-labeled peptide",114-129
same,Labeled Peptide,"protein PCNA Proliferating cell nuclear antigen, residues of the probe-labeled peptide",118-138
same,Labeled Peptide,protein PCYOX1 Prenylcysteine oxidase 1 (Q9UHG3),37-54
same,Labeled Peptide,protein PHB Prohibitin (P35232),241-253
same,Labeled Peptide,protein PLS3 Plastin-3 (P13797),72-85
same,Labeled Peptide,protein PPP1CB Serine/threonine-protein phosphate PP1-alpha cat (P62140),43-59
same,Labeled Peptide,"protein PPP1CC Serine/threonine-protein phosphatase PP1-gamma cat, residues of the probe-labeled peptide",44-60
same,Labeled Peptide,protein PPP1CC Serine/threonine-protein phosphate PP1-gamma cat (P36873),44-60
same,Labeled Peptide,protein PRPF19 Pre-mRNA-processing factor 19 (Q9UMS4),186-196
same,Labeled Peptide,protein PSMD3 26S proteasome non-ATPase regulatory subunit 3 (O43242),426-440
same,Labeled Peptide,protein PTBP1 Polypyrimidine tract-binding protein 1 (P26599),219-238
same,Labeled Peptide,protein Q8NBX0 SCCPDH Saccharopine dehydrogenase-like oxidoreductase,145-167
same,Labeled Peptide,protein Q8TBP6 SLC25A40 Solute carrier family 25 member 40,136-152
same,Labeled Peptide,protein Q8TCJ2 STT3B Dolichyl-diphosphooligosaccharide--protein glycosy,692-703
same,Labeled Peptide,protein Q9H2D1 SLC25A32 Mitochondrial folate transporter/carrier,118-145
same,Labeled Peptide,protein Q9H4I3 TRABD TraB domain-containing protein,235-253
same,Labeled Peptide,protein Q9H061 TMEM126A Transmembrane protein 126A,85-105
same,Labeled Peptide,protein Q9NS69 TOMM22 Mitochondrial import receptor subunit TOM22 homolog,106-117
same,Labeled Peptide,protein Q9UBX3 SLC25A10 Mitochondrial dicarboxylate carrier,171-186
same,Labeled Peptide,protein Q9Y230 RUVBL2 RuvB-like 2,315-330
same,Labeled Peptide,protein QIL1 Protein QIL1 (Q5XLP0),15-36
same,Labeled Peptide,protein RAB7A Ras-related protein Rab-7a (P51149),104-113
same,Labeled Peptide,"protein RAB7A Ras-related protein Rab-7a, residues of the probe-labeled peptide",104-113
same,Labeled Peptide,protein RABEPK Rab9 effector protein with kelch motifs (Q7Z6M1),87-100
same,Labeled Peptide,"protein RARS Arginine--tRNA ligase, cytoplasmic (P54136)",528-540
same,Labeled Peptide,"protein RARS Arginine--tRNA ligase, cytoplasmic, residues of the probe-labeled peptide",528-540
same,Labeled Peptide,"protein RUVBL2 RuvB-like 2, residues of the probe-modified peptide",315-330
same,Labeled Peptide,"protein TXNDC17 Thioredoxin domain-containing protein 17, residues of the probe-modified peptide",4-17
same,Labeled Peptide,"protein VPS33A Vacuolar protein sorting-associated protein 33A, residues of the probe-modified peptide",233-262
same,Labeled Peptide,"protein YWHAQ 14-3-3 protein theta, residues of the probe-modified peptide",194-212
same,Labeled Peptide,"residues of probe-labeled peptide on VDAC3 Voltage-dependent anion-slective channel protein, Accession # Q9Y277",164-174
same,Labeled Peptide,"residues of probe-labeled peptide on VMP1 Vacuole membrane protein 1, Accession # Q96GC9",214-243
same,Labeled Peptide,"residues of probe-labeled peptide on VPS33A Vacuolar protein sorting-associated protein 33A, Accession # Q96AX1",233-262
same,Labeled Peptide,"residues of probe-labeled peptide on VPS51 Vacuolar protein sorting-associated protein 51 hom, Accession # Q9UID3",742-763
same,Labeled Peptide,"residues of probe-labeled peptide on YWHAQ 14-3-3 protein theta, Accession # P27348",194-212
